Some results are limits rather than exact numbers.

The values that follow come from patent US12195476B2, “Synthesis method of furoimidazopyridine compound, crystal form of furoimidazopyridine compound, and crystal form of salt thereof” (HANGZHOU HIGHLIGHTLL PHARMACEUTICAL CO., LTD, priority 2019, dated 2025).

One experiment concerns the target T1, TYK2 (Homo sapiens, UniProt P29597).
T1 construct: purchased Reaction Biology Corp, Malvern, PA (contract test)
Nature of the experiment: TYK2 biochemical test (33P-ATP filter binding kinase assay, Reaction Biology Corp). Conditions: 2 hours at room temperature. The protocol: An appropriate amount of a compound of formula I was weighed for TYK2 biochemical test.
The test was conducted by Reaction Biology Corp, Malvern, PA (Anastassiadis et al. Nat Biotechnol. 2011; 29(11):1039-45). The step is briefly described as follows.
Basic reaction buffer: 20 mM Hepes (pH 7.5), 10 mM MgCl2, 1 mM EGTA, 0.02% Brij35, 0.02 mg/ml BSA, 0.1 mM Na3VO4, 2 mM DTT and 1% DMSO. The required cofactor was added to each kinase reaction respectively.
• 1. Preparing the designated substrate in the newly prepared basic reaction buffer; • 2. Transferring the required cofactor to the above matrix solution; • 3. Transferring the designated kinase to the substrate solution and mixing well slightly; • 4. Transferring a compound of formula I in DMSO to the kinase reaction mixture with Acoustic technique (Echo550; nanoliter range), culturing for 20 minutes at room temperature; • 5. Introducing ^33P-ATP (specific activity: 10 μCi/μl) to the reaction mixture to trigger a reaction; • 6. Culturing at room temperature and conducting a kinase reaction for 2 hours; • 7. Plotting the reaction on P81 ion exchange paper; • 8. Testing the kinase activity with a filter binding assay.

For the next experiment, the target named is JAK1 (Homo sapiens, UniProt P23458). As to conditions: result in words; cited from earlier work.
Chain of JAK1 (P23458 whole entry): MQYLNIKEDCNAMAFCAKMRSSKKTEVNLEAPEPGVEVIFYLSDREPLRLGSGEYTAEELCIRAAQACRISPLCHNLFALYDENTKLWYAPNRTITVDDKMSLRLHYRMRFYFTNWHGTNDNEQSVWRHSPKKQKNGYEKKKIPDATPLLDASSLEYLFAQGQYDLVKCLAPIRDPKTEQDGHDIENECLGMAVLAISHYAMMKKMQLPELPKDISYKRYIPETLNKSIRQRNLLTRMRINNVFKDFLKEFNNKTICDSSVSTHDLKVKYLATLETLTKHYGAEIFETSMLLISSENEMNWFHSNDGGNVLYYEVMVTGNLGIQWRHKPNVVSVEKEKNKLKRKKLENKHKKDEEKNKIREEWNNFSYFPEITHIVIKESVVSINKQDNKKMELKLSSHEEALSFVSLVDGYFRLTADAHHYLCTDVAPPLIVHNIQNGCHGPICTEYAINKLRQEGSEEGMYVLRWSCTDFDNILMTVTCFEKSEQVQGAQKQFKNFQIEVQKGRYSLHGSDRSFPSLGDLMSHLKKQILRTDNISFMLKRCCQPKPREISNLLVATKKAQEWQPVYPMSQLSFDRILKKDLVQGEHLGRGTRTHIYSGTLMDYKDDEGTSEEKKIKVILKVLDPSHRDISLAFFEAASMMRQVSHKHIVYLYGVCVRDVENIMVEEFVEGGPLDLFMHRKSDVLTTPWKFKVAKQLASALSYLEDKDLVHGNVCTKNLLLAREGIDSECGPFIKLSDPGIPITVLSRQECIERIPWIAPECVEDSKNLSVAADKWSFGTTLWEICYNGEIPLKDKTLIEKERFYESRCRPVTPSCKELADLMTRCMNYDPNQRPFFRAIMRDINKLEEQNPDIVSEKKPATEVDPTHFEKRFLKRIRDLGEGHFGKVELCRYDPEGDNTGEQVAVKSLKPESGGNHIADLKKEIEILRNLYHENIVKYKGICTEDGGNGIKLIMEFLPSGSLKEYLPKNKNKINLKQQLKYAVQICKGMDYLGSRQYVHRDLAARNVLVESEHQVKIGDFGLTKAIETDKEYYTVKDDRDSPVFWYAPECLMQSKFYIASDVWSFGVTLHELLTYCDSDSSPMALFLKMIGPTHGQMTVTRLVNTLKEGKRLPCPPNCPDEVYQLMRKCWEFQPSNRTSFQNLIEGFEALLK
Experiment [1] concerns IL-6-induced STAT3 phosphorylation. Conditions: result in words; cited from earlier work.
Experiment [2] concerns thrombopoietin-induced STAT3 phosphorylation. Conditions: result in words; cited from earlier work.

T1 sequence (P29597 whole entry): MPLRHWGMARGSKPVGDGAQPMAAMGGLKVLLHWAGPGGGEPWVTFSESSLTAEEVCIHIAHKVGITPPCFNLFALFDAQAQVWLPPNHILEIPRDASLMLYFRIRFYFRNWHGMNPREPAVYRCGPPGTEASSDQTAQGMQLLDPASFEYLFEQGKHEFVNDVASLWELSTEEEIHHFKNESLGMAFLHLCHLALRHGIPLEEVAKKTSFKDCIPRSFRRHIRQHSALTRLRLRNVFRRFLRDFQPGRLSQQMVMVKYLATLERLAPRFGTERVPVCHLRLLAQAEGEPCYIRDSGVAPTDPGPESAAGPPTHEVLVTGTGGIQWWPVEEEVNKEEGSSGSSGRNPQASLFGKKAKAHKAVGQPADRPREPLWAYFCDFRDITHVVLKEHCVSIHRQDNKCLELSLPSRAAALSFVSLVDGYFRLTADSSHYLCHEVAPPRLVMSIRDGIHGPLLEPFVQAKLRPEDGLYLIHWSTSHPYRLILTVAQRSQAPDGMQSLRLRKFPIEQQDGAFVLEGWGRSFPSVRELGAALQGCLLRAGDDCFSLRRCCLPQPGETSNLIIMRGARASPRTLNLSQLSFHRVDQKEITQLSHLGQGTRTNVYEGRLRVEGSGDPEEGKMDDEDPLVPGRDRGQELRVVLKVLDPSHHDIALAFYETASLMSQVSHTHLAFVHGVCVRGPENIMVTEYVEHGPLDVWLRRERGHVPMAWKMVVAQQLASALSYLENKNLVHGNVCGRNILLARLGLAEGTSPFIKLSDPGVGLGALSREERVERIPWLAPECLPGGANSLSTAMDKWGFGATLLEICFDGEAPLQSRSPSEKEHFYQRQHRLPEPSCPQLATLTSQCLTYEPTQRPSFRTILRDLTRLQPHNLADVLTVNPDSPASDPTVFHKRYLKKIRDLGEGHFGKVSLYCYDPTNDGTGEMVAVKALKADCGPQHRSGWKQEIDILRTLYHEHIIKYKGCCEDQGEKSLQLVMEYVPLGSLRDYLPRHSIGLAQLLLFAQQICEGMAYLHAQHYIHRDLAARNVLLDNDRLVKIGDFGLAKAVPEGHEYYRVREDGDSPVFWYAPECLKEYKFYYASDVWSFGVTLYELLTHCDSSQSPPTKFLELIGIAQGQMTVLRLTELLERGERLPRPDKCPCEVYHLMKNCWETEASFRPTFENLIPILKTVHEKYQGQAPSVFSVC

As usually defined, the IC50 is the concentration at which inhibition is half-maximal. A high value points to a need for much substance. Take `C[C@@H](O)c1nc2cnc3ccoc3c2n1[C@H]1CC[C@H](CC#N)OC1` [compound I, 2-[(2R,5S)-5-[2-[(R)-1-hydroxyethyl]furo[3,2-b]imidazo[4,5-d]pyridin-1-yl]tetrahydropyran-2-yl]acetonitrile]: the IC50 at TYK2 was less than 10 nM. On JAK1, the JAK1 inhibition result is “potent and selective JAK1 inhibitor”. In addition, the “inhibition of IL-6-induced STAT3 phosphorylation” value in experiment [1] is “demonstrated selective inhibition”. Moreover, in experiment [2], the “inhibition of thrombopoietin-induced STAT3 phosphorylation” value is reported as “did not show selective inhibition”.
